Source: PMC11124362, “Metabolism, Disposition, Excretion, and Potential Transporter Inhibition of 7–16, an Improving 5-HT2A Receptor Antagonist and Inverse Agonist for Parkinson’s Disease” (Molecules, 2024)

Tests used:
[1] = Excretion and metabolite identification in bile duct cannulated (BDC) rats; assay type: in vivo, Sprague-Dawley rats
Procedure: In the urine and feces excretion experiment, six rats (3 females and 3 males) were administered a single oral dose of [^14C]7–16 at 3 mg/100 µCi/kg. Urine, feces and cage washing/cleaning solution samples were collected from 0 to 168 h following drug administration at the following time intervals: 0–8, 8–24 h (0–24 h for feces), 24–48, 48–72, 72–96, 96–120, 120–144, and 144–168 h. In the biliary excretion experiment, 8 rats using a bile duct cannula (BDC) (4 females and 4 males) were administered a single oral dose of [^14C]7–16 at 3 mg/100 µCi/kg. Bile, urine, feces, and cage washing solution were collected from before and 0–72 h after oral administration at the following time intervals: 0–4, 4–8 (urine 0–8), 8–24 (feces 0–24), 24–48, and 48–72 h. All samples were collected and refrigerated at −20 °C until determination of the radioactive concentrations by liquid scintillation counter (Perkin Elmer Corporation, Waltham, MA, USA). Urine, feces, and bile samples at each time period were mixed by equal percentages of either volume or weight. After the mixed samples were treated, the radio-profiles and metabolite identification in the bile, urine, and feces samples were carried out by LC-RAM and UPLC-Q Exactive HRMS, and the TRA% of each metabolite in plasma and the percentage of dose (dose%) of each compound in urine, feces, and bile samples were calculated.

CYP1A2 = assay: Metabolic phenotype by rhCYP isozymes, CYP1A2; assay type: in vitro ADME, human; conditions: 7–16 1 µM
Procedure: (§1) Based on the result of metabolite identification, two metabolites were selected as targets for metabolic phenotyping analysis. Seven CYP isozymes (CYP1A2, CYP2B6, CYP2C8, CYP2C9, CYP2C19, CYP2D6, and CYP3A4) were investigated using the rhCYP isozymes method. In brief, 7–16 (1 µΜ) was incubated with each rhCYP isozyme ([…]) in 100 mM sodium phosphate buffer (pH 7.4) containing 3 mM magnesium chloride. After 10 min of preincubation at 37 °C, the reactions were initiated by adding NADPH (1 mM) and then incubated at 37 °C in a shaking water bath for 0, 5, 15, and 30 min. The specific substrates of each rhCYP isozyme were incubated as the above method to confirm the activity of the incubation system. The samples were prepared in triplicates. The reactions were terminated by adding three times the volume of ice-cold acetonitrile (600 µL) and stored at −20 °C until analysis. After pre-treatment, the samples were determined by the LC–MS/MS (Shimadzu Exion-Triple Quad 4500) method. The relative contribution rate of each isozyme to the metabolism of 7–16 was evaluated in HLMs using the following formula: Contributionx% = Vx × Abundancex (pmol/mg protein)/Σ(Vi × Abundancei). Vx (µL/min/pmol) is the production rate of metabolites for each rhCYP isozyme.

CYP2C19 = assay: Metabolic phenotype by rhCYP isozymes, CYP2C19; assay type: in vitro ADME, human; conditions: 7–16 1 µM
Procedure: as §1

CYP2D6 = assay: Metabolic phenotype by rhCYP isozymes, CYP2D6; assay type: in vitro ADME, human; conditions: 7–16 1 µM
Procedure: as §1

OATP1B1 = molecular target: T1, OATP1B1 (Homo sapiens, UniProt Q9Y6L6)
T1 sequence (Q9Y6L6 1-691): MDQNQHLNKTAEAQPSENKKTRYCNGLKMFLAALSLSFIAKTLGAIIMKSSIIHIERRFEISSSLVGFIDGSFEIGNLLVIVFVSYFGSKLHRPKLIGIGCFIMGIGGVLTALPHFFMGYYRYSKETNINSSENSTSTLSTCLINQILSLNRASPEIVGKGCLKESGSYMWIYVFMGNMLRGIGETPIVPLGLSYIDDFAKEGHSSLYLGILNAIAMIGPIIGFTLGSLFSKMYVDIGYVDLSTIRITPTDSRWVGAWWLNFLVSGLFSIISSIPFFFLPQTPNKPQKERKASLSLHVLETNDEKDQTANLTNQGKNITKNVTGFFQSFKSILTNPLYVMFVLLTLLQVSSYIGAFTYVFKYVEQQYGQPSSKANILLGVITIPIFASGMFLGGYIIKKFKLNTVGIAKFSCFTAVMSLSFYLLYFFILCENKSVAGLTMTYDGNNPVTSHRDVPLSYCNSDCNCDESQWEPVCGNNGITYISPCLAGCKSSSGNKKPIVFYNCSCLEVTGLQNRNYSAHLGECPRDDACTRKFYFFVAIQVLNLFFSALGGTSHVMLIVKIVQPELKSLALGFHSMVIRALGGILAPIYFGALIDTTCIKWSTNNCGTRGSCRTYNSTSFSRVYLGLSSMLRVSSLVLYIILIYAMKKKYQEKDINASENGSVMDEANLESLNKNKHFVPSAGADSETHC

5-HT2A receptor = molecular target: 5-HT2A receptor; parameters: method as in PMID 35279606; conditions: cited from earlier work

With `CN1CCC(N(Cc2ccc(F)cn2)C(=O)NCc2ccc(OCC(F)(F)F)cc2)CC1` [7–16, 3-(4-(2,2,2-trifluoroethoxy)benzyl)-1-((5-fluoropyridin-2-yl)methyl)-1-(1-methylpiperidin-4-yl) urea] the “recovery of radioactivity in bile, percent of dose” value ([1]; BDC rats, 0–72 h) was 18.4%, the “recovery of radioactivity in cage rinse/wash, percent of dose” value ([1]; BDC rats, 0–72 h) was 3.42% and the “recovery of radioactivity in feces, percent of dose” value ([1]; BDC rats, 0–72 h) was 20.2%. For the same compound, the “recovery of radioactivity in urine, percent of dose” value ([1]; BDC rats, 0–72 h) was 56.3%, the “total recovery of radioactivity, percent of dose” value ([1]; BDC rats, 0–72 h, oral 3 mg/100 µCi/kg, mean of both sexes) was 98.3% and the “recovery of radioactivity within the first 24 h, percent of dose” value ([1]; BDC rats, first 24 h post-administration) was 82.8%. The absorption rate ([1]; calculated from dose excreted in bile and urine of BDC rats, oral) was “at least 74.7%”, the “relative contribution of CYP1A2 to metabolism” value (CYP1A2) was “little or no contribution” and the “relative contribution of CYP2C19 to metabolism” value (CYP2C19) was “little or no contribution”. The “relative contribution of CYP2D6 to metabolism” value (CYP2D6) was “little or no contribution”, the IC50 (OATP1B1) was > 100000 nM and the IC50 (5-HT2A receptor; previous study, read-out: 5-HT2A inverse agonist activity IC50) was 2.1 nM. For the same compound, the “fold higher inverse agonist activity than pimavanserin” value (5-HT2A receptor; versus pimavanserin) was 23 fold.
